Assay results from PubChem BioAssay AID256 (DTP/NCI, 2004).
Where “and” joins values, the source holds several entries; their conditions need not be identical. Identical values can stand only once. Toxic doses and inconclusive results are not listed.

System: CD2F1 mice, L1210 leukemia ip, survival T/C
Assay: NCI In Vivo Anticancer Drug Screen. Data for tumor model L1210 Leukemia (intraperitoneal) in CD2F1 (CDF1) mice
Conditions: higher = longer survival
Outline: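 In this screen, transplantable tumors were grown in mice given either the compound or its vehicle. Results were expressed as the treated measurement relative to the control measurement.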

In the case of O=c1[nH]c(=O)n(C2CC(O)C(CO)O2)cc1C(F)(F)F (stereo unspecified), the T/C (endpoint: mean survival time, dose: 16.0 mg/kg/injection, schedule: Q01DX009 (ip), vehicle: water) is reported as 152 % of control, the T/C (endpoint: mean survival time, dose: 16.0 mg/kg/injection, schedule: Q03HX016 (ip), vehicle: water) is reported as 123 % of control and the T/C (endpoint: mean survival time, dose: 16.0 mg/kg/injection, schedule: Q03HX024 (ip), vehicle: water) is reported as 171 % of control. The T/C (endpoint: mean survival time, dose: 64.0 mg/kg/injection, schedule: Q01DX009 (ip), vehicle: water) was 152 % of control, the T/C (endpoint: mean survival time, dose: 64.0 mg/kg/injection, schedule: Q04DX003 (ip), vehicle: water) was 118 % of control and the T/C (endpoint: mean survival time, dose: 128.0 mg/kg/injection, schedule: Q03HX016 (ip), vehicle: water) was 157 % of control. For the same compound, the T/C (endpoint: mean survival time, dose: 128.0 mg/kg/injection, schedule: Q03HX024 (ip), vehicle: water) was 109 % of control, the T/C (endpoint: mean survival time, dose: 128.0 mg/kg/injection, schedule: Q04DX003 (ip), vehicle: water) was 112 % of control and the T/C (endpoint: mean survival time, dose: 128.0 mg/kg/injection, schedule: Q08DX002 (ip), vehicle: water) was 100 % of control. The T/C (endpoint: mean survival time, dose: 256.0 mg/kg/injection, schedule: Q01DX001 (ip), vehicle: water) was 108 % of control, the T/C (endpoint: mean survival time, dose: 256.0 mg/kg/injection, schedule: Q01DX009 (ip), vehicle: water) was 112 % of control and the T/C (endpoint: mean survival time, dose: 256.0 mg/kg/injection, schedule: Q03HX008 (ip), vehicle: water) was 152 % of control. For the same compound, the T/C (endpoint: mean survival time, dose: 256.0 mg/kg/injection, schedule: Q03HX016 (ip), vehicle: water) was 163 % of control, the T/C (endpoint: mean survival time, dose: 256.0 mg/kg/injection, schedule: Q04DX003 (ip), vehicle: water) was 118 % of control and the T/C (endpoint: mean survival time, dose: 256.0 mg/kg/injection, schedule: Q08DX002 (ip), vehicle: water) was 109 % of control. The T/C (endpoint: mean survival time, dose: 512.0 mg/kg/injection, schedule: Q01DX001 (ip), vehicle: water) was 114 % of control, the T/C (endpoint: mean survival time, dose: 512.0 mg/kg/injection, schedule: Q03HX008 (ip), vehicle: water) was 153 % of control and the T/C (endpoint: mean survival time, dose: 512.0 mg/kg/injection, schedule: Q08DX002 (ip), vehicle: water) was 112 % of control. The T/C (endpoint: mean survival time, dose: 1024.0 mg/kg/injection, schedule: Q08DX002 (ip), vehicle: water) was 114 % of control, the T/C (endpoint: mean survival time, dose: 2048.0 mg/kg/injection, schedule: Q01DX001 (ip), vehicle: water) was 121 % of control and the T/C (endpoint: mean survival time, dose: 2048.0 mg/kg/injection, schedule: Q08DX002 (ip), vehicle: water) was 124 % of control.
For CC(=O)C(N=Nc1cccc2c1C(=O)c1ccccc1C2=O)C(=O)Nc1ccccc1C (stereo unspecified), the T/C (endpoint: mean survival time, dose: 75.0 mg/kg/injection, schedule: Q01DX001 (ip), vehicle: saline) was 98 % of control, the T/C (endpoint: mean survival time, dose: 150.0 mg/kg/injection, schedule: Q01DX001 (ip), vehicle: saline) was 93 % of control and the T/C (endpoint: mean survival time, dose: 300.0 mg/kg/injection, schedule: Q01DX001 (ip), vehicle: saline) was 96 % of control.
CCN(CC)CCCC(C)NS(=O)(=O)c1cccc2c(N(C)C)cccc12 (stereo unspecified) was tested, and the T/C (endpoint: mean survival time, dose: 25.0 mg/kg/injection, schedule: Q01DX009 (ip), vehicle: water) was 102 % of control, the T/C (endpoint: mean survival time, dose: 50.0 mg/kg/injection, schedule: Q01DX009 (ip), vehicle: water) was 98 % of control and the T/C (endpoint: mean survival time, dose: 100.0 mg/kg/injection, schedule: Q01DX009 (ip), vehicle: water) was 96 % of control.
In the case of NC1CCCCC1N.O=C([O-])c1cc(S(=O)(=O)Nc2cc(S(=O)(=O)[O-])cc3cc(S(=O)(=O)[O-])cc(O)c23)ccc1[O-].[Pt+4], the T/C (endpoint: median survival time, dose: 0.39 mg/kg/injection, schedule: Q04DX003 (ip), vehicle: saline with Tween-80) is reported as 124 % of control, the T/C (endpoint: median survival time, dose: 1.56 mg/kg/injection, schedule: Q04DX003 (ip), vehicle: saline with Tween-80) is reported as 181 % of control and the T/C (endpoint: median survival time, dose: 3.12 mg/kg/injection, schedule: Q04DX003 (ip), vehicle: saline with Tween-80) is reported as 253 % of control and 264 % of control. The T/C (endpoint: median survival time, dose: 6.25 mg/kg/injection, schedule: Q04DX003 (ip), vehicle: saline with Tween-80) was 289 % of control and 103 % of control.
In the case of Cc1c2cnccc2c(C)c2c1c1ccccc1n2CCO, the T/C (endpoint: mean survival time, dose: 100.0 mg/kg/injection, schedule: Q04DX003 (ip), vehicle: saline with Tween-80) is reported as 123 % of control, the T/C (endpoint: mean survival time, dose: 200.0 mg/kg/injection, schedule: Q04DX003 (ip), vehicle: saline with Tween-80) is reported as 117 % of control and the T/C (endpoint: mean survival time, dose: 400.0 mg/kg/injection, schedule: Q01DX009 (ip), vehicle: saline with Tween-80) is reported as 170 % of control. The T/C (endpoint: mean survival time, dose: 400.0 mg/kg/injection, schedule: Q04DX003 (ip), vehicle: saline with Tween-80) was 162 % of control.
In the case of CC(C)([NH-])C[NH-].[Cl][Pt+2][Cl], the T/C (endpoint: median survival time, dose: 10.0 mg/kg/injection, schedule: Q04DX003 (ip), vehicle: saline with Tween-80) is reported as 98 % of control, the T/C (endpoint: median survival time, dose: 20.0 mg/kg/injection, schedule: Q04DX003 (ip), vehicle: saline with Tween-80) is reported as 95 % of control and the T/C (endpoint: median survival time, dose: 40.0 mg/kg/injection, schedule: Q04DX003 (ip), vehicle: saline with Tween-80) is reported as 102 % of control. For the same compound, the T/C (endpoint: median survival time, dose: 80.0 mg/kg/injection, schedule: Q04DX003 (ip), vehicle: saline with Tween-80) was 103 % of control and 112 % of control and the T/C (endpoint: median survival time, dose: 160.0 mg/kg/injection, schedule: Q04DX003 (ip), vehicle: saline with Tween-80) was 117 % of control.
COc1ccccc1NC(=O)Oc1ccc(-c2ccccc2)cc1Cl was tested, and the T/C (endpoint: mean survival time, dose: 100.0 mg/kg/injection, schedule: Q04DX002 (ip), vehicle: saline with Tween-80) was 100 % of control, the T/C (endpoint: mean survival time, dose: 200.0 mg/kg/injection, schedule: Q04DX002 (ip), vehicle: saline with Tween-80) was 103 % of control and the T/C (endpoint: mean survival time, dose: 400.0 mg/kg/injection, schedule: Q04DX002 (ip), vehicle: saline with Tween-80) was 88 % of control.
In the case of O=C(c1ccccn1)c1ccccn1, the T/C (endpoint: mean survival time, dose: 100.0 mg/kg/injection, schedule: Q04DX003 (ip), vehicle: saline) is reported as 96 % of control, the T/C (endpoint: mean survival time, dose: 200.0 mg/kg/injection, schedule: Q04DX003 (ip), vehicle: saline) is reported as 104 % of control and the T/C (endpoint: mean survival time, dose: 400.0 mg/kg/injection, schedule: Q04DX003 (ip), vehicle: saline) is reported as 102 % of control.
